Laboratory results taken from PubChem BioAssay AID2060892 (Molecular Pharmacology Branch, DTP, NCI, 2025).
pIC50: −log10 of the molar value.

Tested on: HOP-62 complex spheroids with HUVEC/MSC, viability
Assay: Anticancer human tumor HOP-62 cell line growth inhibition [RAS];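 note: spheroids exposed to agents for seven days before readout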;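 for viability, T/C: 100% = DMSO vehicle control viability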
Settings: for pIC50: curve of first compound; for viability, T/C: stronger effect = lower value
Description: RAS pathway inhibitors in Combinations in Complex Spheroids
A high-throughput screen of multi-cell type tumor spheroids was designed to identify active combinations of RAS pathway inhibitors and targeted small molecules. Complex spheroids include a stromal component modeled by human endothelial cells (HUVEC) and fibroblasts modeled by human mesenchymal stem cells (MSCs). The concentration ranges selected for each drug and investigational agent were based upon clinically achievable concentrations if the clinical Cmax of the agent was known.
Compounds. The drugs and investigational agents: abemaciclib (NSC768073), cobimetinib (NSC768068), divarasib (GDC6063, NSC841802), docetaxel (NSC628503), GDC-1971 (RLY-1971, NSC841576), gemcitabine (NSC613327), inavolisib (NSC800729), ipatasertib (NSC767898), KB-0742 (NSC834161), MRTX-1133 (NSC836407), osimertinib (NSC779217), RMC-4630 (NSC839698), RMC-6236 (NSC851965), RMC-6291 (NSC852671), Ro-3306 (NSC812927), sapanisertib (NSC764658), SN-38 (NSC673596), staurosporine (NSC755774), SY5609 (NSC837396), and tovorafenib (DAY101, NSC766906), were obtained from the National Cancer Institute (NCI) Developmental Therapeutics Program Chemical Repository. The FDA-approved anticancer drug set is available from the NCI Developmental Therapeutics Program. […] The stock solutions were prepared in dimethyl sulfoxide (DMSO, Sigma-Aldrich, St. Louis, MO, cat. D2650) at 800-fold the tested concentration and stored at -70 degrees C prior to their use. All drugs and investigational agents were tested over a range starting from a high concentration at or near the clinical Cmax and decreasing in half-log increments. If the clinical Cmax for an agent had not been determined, the highest concentration tested was 10 microM.
Cell Culture. All cells were maintained in an incubator at 37 degrees C and 5% CO2 with 95% humidity. The PDC lines were cultured according to standard operating procedures established by the NCI PDMR. All PDCs were thawed and cultured in Matrigel-coated flasks prepared with a working solution of 1X Ham's F-12 nutrient mix, without supplementation (Invitrogen, Waltham, MA, cat. 11765054), 100 U/mL penicillin-streptomycin (Invitrogen, cat. 15140122), and 2.5% Matrigel (Corning Inc., Corning, NY, cat. 354248) for the first three passages. The 362531-283-R-J2-PDC and 782815-120-R-J1-PDC lines were cultured in 6C/Colon 1B media, which includes advanced DMEM/F-12 (Thermo Fisher Scientific, cat. 12634028), 10 mM HEPES (Thermo Fisher Scientific, cat. 15630080), 1X GlutaMAX supplement (Thermo Fisher Scientific, cat. 35050061), 0.1 mg/mL primocin (InvivoGen, San Diego, CA, cat. ant-pm-2), 10% defined fetal bovine serum, heat inactivated (HyClone Laboratories Inc., Logan, UT, cat. SH30070.03HI), 50% L-WRN conditioned media (ATCC, cat. CRL-3276), 1.25 mM N-Acetyl-L-cysteine (Sigma-Aldrich, cat. A9165), 10 mM nicotinamide (Sigma-Aldrich, cat. N0636), 1X B-27 supplement (Thermo Fisher Scientific, cat. 17504044), 1X N-2 supplement (Thermo Fisher Scientific, cat. 17502048), 50 ng/mL human EGF (Thermo Fisher Scientific, cat. PHG0311), and 10 microM Y-27632 dihydrochloride (Tocris Bioscience, cat. 1254). The K12877-001-R-J1-PDC line was cultured in 6I media, which includes all 6C/Colon 1B media plus 10 ng/mL human FGF-10 (PeproTech, cat. 100-26), 1 ng/mL human FGF-2 (PeproTech, cat. 100-18B), 1 µM prostaglandin E2 (Tocris Bioscience, cat. 2296), […] hydrocortisone (Sigma-Aldrich, cat. H4001), and […] bovine insulin (Sigma-Aldrich, cat. I6634). The K86415-001-R-J1-PDC line was cultured in 6D media, which includes all 6C/Colon 1B media components minus the L-WRN conditioned media. The 485176-168-R4-J1-PDC was cultured in PANC media, which includes all 6C/Colon 1B media plus 100 ng/mL human FGF-10 (PeproTech, cat. 100-26), 500 nM SB-431542 (Selleckchem, cat. S1067), and 10 nM gastrin (Tocris Bioscience, cat. 3006). […]

## CCC(CC)c1cc(NC2CCC(N)C2)n2nccc2n1 (configuration not stated) + CCn1c(-c2cccnc2C(C)OC)c2c3cc(ccc31)N1CCOC(CC(NC(=O)C(C(C)C)N(C)C(=O)C3(F)CCN(C(=O)C#CC(C)(C)N(C)C)CC3)C(=O)N3CCCC(N3)C(=O)OCC(C)(C)C2)C1
Second compound 0.000949 µM
  pIC50: 5.71
Second compound 0.003 µM
  pIC50: 5.70
Second compound 0.00949 µM
  pIC50: 5.73
Second compound 0.03 µM
  pIC50: 5.74
Second compound 0.0949 µM
  pIC50: 5.75
Second compound 0.3 µM
  pIC50: 5.77
Second compound 0.000949 µM, first compound 0.0316 µM
  viability, T/C: 126%
Second compound 0.000949 µM, first compound 0.1 µM
  viability, T/C: 107%
Second compound 0.000949 µM, first compound 0.316 µM
  viability, T/C: 96.3%
Second compound 0.000949 µM, first compound 1 µM
  viability, T/C: 110%
Second compound 0.000949 µM, first compound 3.16 µM
  viability, T/C: 6.83%
Second compound 0.000949 µM, first compound 10 µM
  viability, T/C: 1.38%
Second compound 0.003 µM, first compound 0.0316 µM
  viability, T/C: 116%
Second compound 0.003 µM, first compound 0.1 µM
  viability, T/C: 101%
Second compound 0.003 µM, first compound 0.316 µM
  viability, T/C: 109%
Second compound 0.003 µM, first compound 1 µM
  viability, T/C: 118%
Second compound 0.003 µM, first compound 3.16 µM
  viability, T/C: 7.77%
Second compound 0.003 µM, first compound 10 µM
  viability, T/C: 0.66%
Second compound 0.00949 µM, first compound 0.0316 µM
  viability, T/C: 91.4%
Second compound 0.00949 µM, first compound 0.1 µM
  viability, T/C: 96.5%
Second compound 0.00949 µM, first compound 0.316 µM
  viability, T/C: 101%
Second compound 0.00949 µM, first compound 1 µM
  viability, T/C: 121%
Second compound 0.00949 µM, first compound 3.16 µM
  viability, T/C: 5.15%
Second compound 0.00949 µM, first compound 10 µM
  viability, T/C: 0.65%
Second compound 0.03 µM, first compound 0.0316 µM
  viability, T/C: 98.5%
Second compound 0.03 µM, first compound 0.1 µM
  viability, T/C: 99.6%
Second compound 0.03 µM, first compound 0.316 µM
  viability, T/C: 100%
Second compound 0.03 µM, first compound 1 µM
  viability, T/C: 113%
Second compound 0.03 µM, first compound 3.16 µM
  viability, T/C: 2.86%
Second compound 0.03 µM, first compound 10 µM
  viability, T/C: 0.81%
Second compound 0.0949 µM, first compound 0.0316 µM
  viability, T/C: 91.7%
Second compound 0.0949 µM, first compound 0.1 µM
  viability, T/C: 98.4%
Second compound 0.0949 µM, first compound 0.316 µM
  viability, T/C: 96.9%
Second compound 0.0949 µM, first compound 1 µM
  viability, T/C: 104%
Second compound 0.0949 µM, first compound 3.16 µM
  viability, T/C: 1.59%
Second compound 0.0949 µM, first compound 10 µM
  viability, T/C: 0.78%
Second compound 0.3 µM, first compound 0.0316 µM
  viability, T/C: 82.5%
Second compound 0.3 µM, first compound 0.1 µM
  viability, T/C: 86.8%
Second compound 0.3 µM, first compound 0.316 µM
  viability, T/C: 95%
Second compound 0.3 µM, first compound 1 µM
  viability, T/C: 95%
Second compound 0.3 µM, first compound 3.16 µM
  viability, T/C: 3.22%
Second compound 0.3 µM, first compound 10 µM
  viability, T/C: 1.08%
